Where a name gives a salt, the structure may show the parent alone.
Key:
[1] = test system: C57BL/KsJ db/db diabetic mice; assay: Measurement of fasting blood glucose (in vivo efficacy test for blood glucose lowering); conditions: oral once a day, Noni 100 mg/kg, Metformin 200 mg/kg
Description: (§1) An administration sample administered to a diabetic model positive control was a Metformin Tab (metformin hydrochloride, JRP), which is a diabetic drug. A dose was 200 mg/kg body weight of a mouse (denoted as Metformin 200 mg/kg).
(§2) An administration sample administered to a diabetic model fermented noni group was a food composition containing the fermented noni obtained in Example 1. A dose was 100 mg/kg body weight of a mouse (denoted as Noni 100 mg/kg).
(§3) As for the administration method, each administration sample was dissolved in 0.5% carboxymethyl cellulose (CMC) for each dose and orally administered once a day for 6 weeks.
The fasting blood glucose of the experimental animals was measured once a week for 6 weeks using a glucometer. Fasting blood glucose was measured at 1-week (7-day) intervals for 6 weeks (42 days) for each experimental group.

[2] = test system: C57BL/KsJ db/db diabetic mice; assay: Oral glucose tolerance test (OGTT); format: in vivo; conditions: db/db mice after 6 weeks oral administration, Noni 100 mg/kg, Metformin 200 mg/kg; for blood glucose decreased (OGTT): glucose 3.0 g/kg oral
Description: as §1, §2, §3
After the completion of oral administration for 6 weeks, an oral glucose tolerance test (OGTT) was performed.
After experimental animals were fasted for 12 hours, fasting blood glucose was measured by collecting blood from the tail vein, and then a 50% glucose solution (3.0 g/kg of B.W) was orally administered to all groups, and after 30 minutes, 60 minutes, 120 minutes and 180 minutes, blood glucose was measured using a glucometer.

CN(C)C(=N)N=C(N)N [Metformin, metformin hydrochloride]
decrease in fasting blood glucose ([1]; after 6 weeks): 34%
fasting blood glucose ([1]; for 1 to 6 weeks, FIG. 2): consistently low
AUC value decreased (OGTT area under curve) ([2]; compared to db/db control, FIG. 4): 23.3%
blood glucose decreased (OGTT) ([2]; at 2 hr, compared to db/db control): 22.9%
blood glucose decreased (OGTT) ([2]; at 3 hr, compared to db/db control): 28.5%
blood glucose decreased (OGTT) ([2]; from 1 hr, compared to blood glucose increased at 0.5 hr in db/db control): 33.1%

Source: US20220408777A1, “FOOD COMPOSITION FOR PREVENTING AND AM[…] […] NONI AND METHOD FOR PREPARING SAME” (NSTBIO. CO., LTD., priority 2020, published 2022)
